# According to patent US10441681B2, “Materials and methods for nerve grafting” (University of Florida Research Foundation, Inc., priority 2001, dated 2019):
# Legend:
# rat sciatic nerve = assay: Axonal regeneration after bilateral sciatic nerve crush injury (axonotmesis); format: in vivo; settings: two days after injury, 1 U in 2 μl injected, n=6
# Description: All surgical procedures were performed according to Institutional Animal Care and Use Committee (IACUC) approved protocols. Young adult SPRAGUE DAWLEY rats (HARLAN Indianapolis, Ind.) were deeply anesthetized with xylazine (15 mg/kg, i.m.) followed by ketamine-HCl (110 mg/kg, i.p.). Six animals received bilateral nerve crush injuries. Sciatic nerves were exposed and then crushed with firm pressure for thirty seconds with a DUMONT #5 forceps at a site 4 mm distal to the tendon of the internal obdurator. The crush site was marked with an epineurial suture. In a separate set of experiments, eight rats received bilateral sciatic nerve transection injuries using serrated scissors. The proximal and distal stumps were […] by epineurial neurorrhaphy using 9-0 ETHILON sutures. Fibrin glue (fibrinogen and thrombin) was then applied to stabilize the union. In both injury models, the right sciatic nerves were injected 2-mm distal to the injury with chondroitinase ABC (1 U in 2 μl) (high-purity, protease-free; SIGMA CHEMICAL CO., St. Louis, Miss.). Left sciatic nerves (with the same injury as the right side) were injected with vehicle alone (0.1% bovine serum albumin in PBS). […]
# The hypothesis that chondroitinase treatment improves axonal growth through the site of nerve crush injury was tested. […] Regenerating axons were labeled by GAP-43 immunofluorescence and scored by digital image analysis. […]
# CSPG = CSPG neoepitope (Ab1918) immunolabeling of acellular rat sciatic nerve segments treated en bloc; settings: acellular rat sciatic nerve segments bathed en bloc in chondroitinase ABC solution for 16 hours
# Source text: Adult (180-200 g) female SPRAGUE DAWLEY rats (HARLAN, Indianapolis, Ind.) were used as nerve donors and recipient hosts. Donor rats were anesthetized with halothane and decapitated. Sciatic nerves were exposed through a gluteal muscle-splitting incision and isolated free of underlying fascia. A 15-mm nerve segment was excised rostral to the bifurcation into common peroneal and tibial nerves. The segments were rinsed with cold sterile Ringer's solution, stabilized by pinning the ends to a thin plastic support, and transferred to a cryogenic vial. The vials were submerged in liquid nitrogen for 2 minutes and then transferred to a 37° C. water bath for 2 minutes. This freeze/thaw cycle was repeated, yielding acellular nerve grafts that were then stored in liquid nitrogen. On the day before grafting, the nerve grafts were warmed to room temperature and incubated in 100 μl phosphate buffered saline pH 7.4 (PBS) containing 2 units/ml chondroitinase ABC (SIGMA, St. Louis, Mo.) or in PBS (vehicle) only for 16 hours at 37° C. The grafts were rinsed twice with Ringer's and kept on ice prior to use. The chondroitinase ABC preparation was highly purified and stated by the manufacturer to be essentially free of protease activity.
# Axonal regeneration was assessed by GAP-43 immunofluorescence and digital image analysis. […]
substance,measurement,setting,value
chondroitinase ABC,axonal regeneration after nerve crush injury (GAP-43 immunoreactivity),rat sciatic nerve,no significant difference
same,axonal regeneration after nerve crush injury (GAP-43 immunoreactivity),rat sciatic nerve; listed as chondroitinase,not significantly effected
same,CSPG degradation (Ab1918 neoepitope immunostaining),CSPG,thoroughly degraded CSPG side-chains
